Laboratory results published in ChEMBL document CHEMBL1158087, “Gracilarioside and gracilamides from the red alga Gracilaria asiatica” (2006).

Columns and labels:
[1] = Cytotoxicity against human A375S2 cells assessed as induction of cell death at 30 ug/mL by MTT assay; assay type: functional, A375-S2
[2] = Cytotoxicity against human A375S2 cells assessed as induction of cell death at 20 ug/mL by MTT assay; assay type: functional, A375-S2

## CCCCCCCCCCCCCCCCCCCCCCC[C@@H](O)C(=O)N[C@@H](CO)[C@H](O)[C@H](O)C/C=C/CCCCC1CC1CCCC (stereo partly drawn) [GRACILAMIDE A]
[1]
  Activity: 11.7%

## CCCCCCCCCCCCCCCCCCCCCC[C@@H](O)[C@@H](O)[C@H](CO)NC(=O)[C@H](O)CCCCCCCCC1CC1CCCC (stereo partly drawn) [GRACILAMIDE B]
[1]
  Activity: 11.7%

## CCCCCCCCCCCCCCCCCCCCCCC[C@@H](O)C(=O)N[C@@H](CO[C@@H]1O[C@H](CO)[C@@H](O)[C@H](O)[C@H]1O)[C@H](O)[C@H](O)C/C=C/CCCCC1CC1CCCC (stereo partly drawn) [GRACILARIOSIDE]
[2]
  Activity: 18.2%
